Source: patent publication US12188040B2, “Method for enhancing gene expression using AAV vector” (priority 2018, dated 2025)
Where “and” joins values, the source holds several entries; their conditions need not be identical. Identical values can stand only once. Like-named read-outs stand apart in the source and are kept apart here.

Key:
HEK293 cells [1] = system: HEK293 cells
Experimental: As the first procedure, 4 methods of the addition were carried out, including adding sucrose immediately (5 minutes or less) after the administration of the AAV vector, and the administration of the AAV vector immediately (5 minutes or less) after, 10 minutes after or 1 hour after adding sucrose to cells.
In the same manner as the above-described procedure, the GFP expression level was measured 3 days later.
In the same manner as the above-described procedures, the GFP expression level was measured 3 days later.
AAV3B-CMV-AcGFP was mixed in advance with sucrose at each of various concentrations, and the mixture was allowed to stand at room temperature for 1 hour followed by administration to cells. […] In order to prevent cell damage due to a buffer at the time of dilution of sucrose, medium replacement was carried out using a sucrose solution having the same concentration that was prepared by the medium 3 hours after the administration.

HEK293 cells [2] = experiment: GFP expression in HEK293 cells infected with yf2AAV9-CMV-AcGFP in the presence of sucrose; conditions: Exp 1, yf2AAV9-CMV-AcGFP 2×10^9 vg/well, 3 days
Experimental: (§1) To the culture cells of (b) above, 6×10^7 to 5×10^8 vg/well of AAV3B-CMV-AcGFP expressing GFP described in Item (a) above was added, or 2×10^9 vg/well of yf2AAV9-CMV-AcGFP was added, and then the cells were cultured for 3 to 6 days.
(§2) The fluorescence intensity of GFP was measured using a plate reader (BioTek Japan) and comparison thereof was made. Further, the images of typical view fields were taken using the fluorescence microscope (Olympus IX83).
On a 96 well Optical bottom plate (ThermoFisher), 5×10^4 cells/well of HEK293 cells were seeded, and the next day, either 2×10^8 vg/well of AAV3B-CMV-AcGFP or 2×10^9 vg/well of yf2AAV9-CMV-AcGFP was added thereto. […] To a sucrose (−) control, the same amount of the medium as that of the sucrose solution was added. After cell cultivation for 3 days under 5% CO2 at 37° C. in an incubator, the fluorescence intensity of GFP was measured using the plate reader (BioTek Japan) and comparison thereof was made (FIG. 1A). Further, the images of typical view fields were taken using the fluorescence microscope (Olympus IX83) (FIG. 1B).

HepG2 cells [3] = experiment: GFP expression in HepG2 cells infected with AAVGT4-CMV-AcGFP in the presence of sucrose; conditions: Exp 3, AAVGT4-CMV-AcGFP 5×10^8 vg/well, 3 days
Experimental: (§3) Three types of AAV vectors (AAV3B, yf2AAV9 and AAVGT4) were used.
as §1, §2
(§4) On a 96 well Optical bottom plate, 5×10^4 cells/well of HepG2 cells were seeded, and 5×10^8 vg/well of AAVGT4-CMV-AcGFP or 5×10^8 vg/well of AAV3B-CMV-AcGFP was added to the medium on the next day. […] To a sucrose (−) control, the medium in the same amount as that of the sucrose solution was added. After cell cultivation for 3 days under 5% CO2 at 37° C. in an incubator, the fluorescence intensity of GFP was measured using the plate reader and comparison thereof was made.

HepG2 cells [4] = experiment: GFP expression in HepG2 cells infected with AAV3B-CMV-AcGFP in the presence of sucrose; conditions: Exp 3, AAV3B-CMV-AcGFP 5×10^8 vg/well, 3 days
Experimental: as §3, §1, §2, §4

[5] = Exp 2, AAV3B 6×10^7 vg/well, iso-osmotic additives: sucrose 125.0, glucose 132.3, mannitol 132.3, NaCl 71.5 mM, 3 days
[6] = Exp 6, sucrose 187 mM, data not shown

SMILES: OC[C@H]1O[C@@](CO)(O[C@H]2O[C@H](CO)[C@@H](O)[C@H](O)[C@H]2O)[C@@H](O)[C@@H]1O [Sucrose, sucrose]
- GFP fluorescence intensity (HEK293 cells [1]; Exp 1, AAV3B-CMV-AcGFP 2×10^8 vg/well, sucrose 125 mM final, 3 days): 9257.45
- (+)/(−) GFP expression increase (HEK293 cells [1]; Exp 1, AAV3B-CMV-AcGFP 2×10^8 vg/well, sucrose 125 mM vs no sucrose, 3 days): 15.4 times
- GFP intensity (HEK293 cells [1]; [5]): 1844.8
- Relativeness (vs No Additive) (HEK293 cells [1]; [5]): 11 times and 11.2 times
- Fluorescence Intensity (HEK293 cells [1]; Exp 4A, AAV3B 1×10^8 vg/well, AAV 10 min after sucrose 125 mM, 3 days): 2580.3
- Fluorescence Intensity (HEK293 cells [1]; Exp 4A, AAV3B 1×10^8 vg/well, AAV 1 hr after sucrose 125 mM, 3 days): 3047
- Fluorescence Intensity (HEK293 cells [1]; Exp 4A, AAV3B 1×10^8 vg/well, AAV immediately after sucrose 125 mM, 3 days): 2356.2
- Fluorescence Intensity (HEK293 cells [1]; Exp 4A, AAV3B 1×10^8 vg/well, sucrose 125 mM added immediately after AAV, 3 days): 2500.8
- Relativeness (vs Sucrose(−)) (HEK293 cells [1]; Exp 4A, AAV 10 min after sucrose 125 mM, 3 days): 10.5
- Relativeness (vs Sucrose(−)) (HEK293 cells [1]; Exp 4A, AAV 1 hr after sucrose 125 mM, 3 days): 12.4
- Relativeness (vs Sucrose(−)) (HEK293 cells [1]; Exp 4A, AAV immediately after sucrose 125 mM, 3 days): 9.6
- Relativeness (vs Sucrose(−)) (HEK293 cells [1]; Exp 4A, sucrose 125 mM added immediately after AAV, 3 days): 10.2
- Increase of expression (HEK293 cells [1]; Exp 4A, sucrose 125 mM, any of the adding methods, 3 days): about 10 times
- Fluorescence Intensity (HEK293 cells [1]; Exp 4B, AAV3B 1×10^8 vg/well premixed with sucrose (125 mM final), administered 1 hr after mixing, 3 days): 3049.8
- Fluorescence Intensity (HEK293 cells [1]; Exp 4B, AAV3B 1×10^8 vg/well premixed with sucrose (125 mM final), administered immediately after mixing, 3 days): 3002.5
- Relativeness (vs (−) => (−)) (HEK293 cells [1]; Exp 4C, (+) => (+): sucrose from immediately after AAV, 3 days): 4.9 times
- Relativeness (vs (−) => (−)) (HEK293 cells [1]; Exp 4C, (−) => (+): sucrose added 3 hours later, 3 days): 2.8 times
- Fluorescence Intensity (HEK293 cells [1]; Exp 4C, AAV3B 1×10^8 vg/well, (+) => (+): sucrose 125 mM from immediately after AAV, 3 days): 534.5
- Fluorescence Intensity (HEK293 cells [1]; Exp 4C, AAV3B 1×10^8 vg/well, (−) => (+): sucrose 125 mM only from medium replacement 3 h after AAV, 3 days): 309.8
- Optimum concentration for expression enhancement (HEK293 cells [1]; Exp 6, after 3 days): 150 mM
- Fluorescence Intensity (HEK293 cells [1]; Exp 6, sucrose 80 mM, AAV3B 1×10^8 vg/well premixed 1 h, 3 days): 1026.0
- Relativeness (vs 0 mM) (HEK293 cells [1]; Exp 6, sucrose 90 mM, 3 days): 6.4
- Fluorescence Intensity (HEK293 cells [1]; Exp 6, sucrose 90 mM, AAV3B 1×10^8 vg/well premixed 1 h, 3 days): 1230.5
- Relativeness (vs 0 mM) (HEK293 cells [1]; Exp 6, sucrose 100 mM, 3 days): 8.1
- Fluorescence Intensity (HEK293 cells [1]; Exp 6, sucrose 100 mM, AAV3B 1×10^8 vg/well premixed 1 h, 3 days): 1568.3
- Relativeness (vs 0 mM) (HEK293 cells [1]; Exp 6, sucrose 105 mM, 3 days): 9.2
- Fluorescence Intensity (HEK293 cells [1]; Exp 6, sucrose 105 mM, AAV3B 1×10^8 vg/well premixed 1 h, 3 days): 1769.3
- Relativeness (vs 0 mM) (HEK293 cells [1]; Exp 6, sucrose 110 mM, 3 days): 10.1
- Fluorescence Intensity (HEK293 cells [1]; Exp 6, sucrose 110 mM, AAV3B 1×10^8 vg/well premixed 1 h, 3 days): 1952.3
- Relativeness (vs 0 mM) (HEK293 cells [1]; Exp 6, sucrose 115 mM, 3 days): 12.2
- Fluorescence Intensity (HEK293 cells [1]; Exp 6, sucrose 115 mM, AAV3B 1×10^8 vg/well premixed 1 h, 3 days): 2351.3
- Relativeness (vs 0 mM) (HEK293 cells [1]; Exp 6, sucrose 120 mM, 3 days): 15.3
- Fluorescence Intensity (HEK293 cells [1]; Exp 6, sucrose 120 mM, AAV3B 1×10^8 vg/well premixed 1 h, 3 days): 2941.0
- Relativeness (vs 0 mM) (HEK293 cells [1]; Exp 6, sucrose 125 mM, 3 days): 18.8
- Fluorescence Intensity (HEK293 cells [1]; Exp 6, sucrose 125 mM, AAV3B 1×10^8 vg/well premixed 1 h, 3 days): 3626.8
- Relativeness (vs 0 mM) (HEK293 cells [1]; Exp 6, sucrose 130 mM, 3 days): 21.1
- Fluorescence Intensity (HEK293 cells [1]; Exp 6, sucrose 130 mM, AAV3B 1×10^8 vg/well premixed 1 h, 3 days): 4069.0
- Relativeness (vs 0 mM) (HEK293 cells [1]; Exp 6, sucrose 135 mM, 3 days): 25.0
- Fluorescence Intensity (HEK293 cells [1]; Exp 6, sucrose 135 mM, AAV3B 1×10^8 vg/well premixed 1 h, 3 days): 4813.3
- Relativeness (vs 0 mM) (HEK293 cells [1]; Exp 6, sucrose 140 mM, 3 days): 29.2
- Fluorescence Intensity (HEK293 cells [1]; Exp 6, sucrose 140 mM, AAV3B 1×10^8 vg/well premixed 1 h, 3 days): 5620.5
- Fluorescence Intensity (HEK293 cells [1]; Exp 6, sucrose 145 mM, AAV3B 1×10^8 vg/well premixed 1 h, 3 days): 5763.8
- Fluorescence Intensity (HEK293 cells [1]; Exp 6, sucrose 150 mM, AAV3B 1×10^8 vg/well premixed 1 h, 3 days): 6411.8
- Fluorescence Intensity (HEK293 cells [1]; Exp 6, sucrose 160 mM, AAV3B 1×10^8 vg/well premixed 1 h, 3 days): 5922.5
- Cell damage (HEK293 cells [1]; [6]): damaged and detached
- Decrease of GFP intensity (HEK293 cells [1]; [6]): about 20%
- Fluorescence Intensity (HEK293 cells [1]; Exp 8, disaccharide 100 mM in medium, AAV3B 1×10^8 vg/well, Day 3): 1312.7
- Relativeness (vs No Sugar) (HEK293 cells [1]; Exp 8, disaccharide 100 mM, Day 3): 2.2
- Fluorescence Intensity (HEK293 cells [1]; Exp 8, disaccharide 125 mM in medium, AAV3B 1×10^8 vg/well, Day 3): 1760.5
- Relativeness (vs No Sugar) (HEK293 cells [1]; Exp 8, disaccharide 125 mM, Day 3): 2.9
- Fluorescence Intensity (HEK293 cells [1]; Exp 8, disaccharide 150 mM in medium, AAV3B 1×10^8 vg/well, Day 3): 2979.5
- Fluorescence Intensity (HEK293 cells [1]; Exp 8, disaccharide 150 mM, AAV3B 1×10^8 vg/well, Day 1): 434.5
- Fluorescence Intensity (HEK293 cells [1]; Exp 8, disaccharide 150 mM, AAV3B 1×10^8 vg/well, Day 2): 1657.3
- Fluorescence Intensity (HEK293 cells [1]; Exp 8, disaccharide 150 mM, AAV3B 1×10^8 vg/well, Day 6): 7908.0
- Relativeness (vs No Sugar) (HEK293 cells [1]; Exp 8, disaccharide 150 mM, Day 3): 4.9
- GFP fluorescence intensity (HEK293 cells [2]; sucrose 125 mM final): 321.4
- (+)/(−) GFP expression increase (HEK293 cells [2]; sucrose 125 mM vs no sucrose): 19.6 times
- (+)/(−) GFP expression increase (HepG2 cells [3]; sucrose 125 mM vs none): 19.1 times
- GFP fluorescence intensity (HepG2 cells [3]; sucrose 125 mM): 579.8
- (+)/(−) GFP expression increase (HepG2 cells [4]; sucrose 125 mM vs none): 16.1 times
- GFP fluorescence intensity (HepG2 cells [4]; sucrose 125 mM): 970.8
